Laboratory results as given in patent publication US9115151B2, “Substituted 2,10-dihydro-9-oxa-1,2,4A-triazaphenanthren-3-ones and uses thereof” (AbbVie Inc., priority 2012, dated 2015).
pEC50, pIC50: −log10 of the molar value. Structures can show the parent of a compound that is named as a salt.

Assays:
PKCθ = target: T1, PKCθ (Homo sapiens, UniProt Q04759); assay: In vitro enzyme assay (time-resolved fluorescence kinase assay), PKCθ, 100 μM ATP; type: biochemical
T1 construct: His6; purchased Millipore; host or cells: baculovirus in Sf21 cells
T1 sequence (Q04759 whole entry): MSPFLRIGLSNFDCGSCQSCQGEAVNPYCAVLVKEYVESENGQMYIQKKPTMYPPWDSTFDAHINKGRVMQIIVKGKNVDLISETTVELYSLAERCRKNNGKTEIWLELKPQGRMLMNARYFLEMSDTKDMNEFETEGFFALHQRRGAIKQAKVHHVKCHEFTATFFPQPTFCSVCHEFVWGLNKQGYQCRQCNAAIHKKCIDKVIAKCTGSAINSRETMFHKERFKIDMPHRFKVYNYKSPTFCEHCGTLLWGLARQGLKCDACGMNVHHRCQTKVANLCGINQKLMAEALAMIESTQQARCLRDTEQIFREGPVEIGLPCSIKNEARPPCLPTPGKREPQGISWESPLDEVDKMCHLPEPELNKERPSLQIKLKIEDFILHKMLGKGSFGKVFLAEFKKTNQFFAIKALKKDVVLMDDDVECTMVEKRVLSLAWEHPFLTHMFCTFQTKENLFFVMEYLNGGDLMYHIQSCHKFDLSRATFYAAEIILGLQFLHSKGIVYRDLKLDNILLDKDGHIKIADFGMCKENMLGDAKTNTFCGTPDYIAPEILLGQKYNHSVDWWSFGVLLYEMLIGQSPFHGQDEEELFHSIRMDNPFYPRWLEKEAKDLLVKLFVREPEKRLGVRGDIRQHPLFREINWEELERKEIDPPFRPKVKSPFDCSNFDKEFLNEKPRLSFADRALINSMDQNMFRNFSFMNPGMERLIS
How it was run: (§1)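 Read-out was time-resolved fluorescence, corrected for a minus-enzyme blank and converted to percent activity relative to enzyme without drug. They were stopped with EDTA.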

PKCα = target: T2, PKCα (Homo sapiens, UniProt P17252); assay: In vitro enzyme assay (time-resolved fluorescence kinase assay), PKCα, 100 μM ATP; type: biochemical; conditions: 100 μM ATP; read-out: PKCα enzyme IC50
T2 construct: His6; purchased Millipore; host or cells: baculovirus in Sf21 cells
How it was run: as §1

[1] = tested on: CD3/CD28 induced IL-2 in human T-Blasts; assay: T-Blasts CD3/CD28 induced IL-2 assay; type: cell-based; conditions: read-out: CD3/CD28-stimulated IL2 in T-blasts EC50
How it was run: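 IL-2 in supernatants read after 24 h 37° C stimulation of human PHA T-blasts (2×10^5/well) with anti-CD3/anti-CD28 at 5 μg/mL final. Duplicate eight-point, 1/3-step compound series added 30 min before stimulus; residual cells checked by MTT for toxicity.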

Compound | pIC50 (PKCθ) | pIC50 (PKCα) | pEC50 [1]
CC1C(=O)NN=C2COc3ccc(N4CCCC4CN)cc3N21 (stereo not drawn) [Example 117, 6-(2-Aminomethyl-pyrrolidin-1-yl)-4-methyl-2,10-dihydro-9-oxa-1,2,4a-triaza-phenanthren-3-one trifluoroacetic acid] | > 6.60 | 5.00 to 6.00 | 6.00 to 6.60
C[C@@H]1C(=O)NN=C2COc3cc(-c4ccccc4F)c(NC4CNC4)cc3N21 [Example 3] | > 6.60 | 5.00 to 6.00 | > 6.60
Cc1cc2c(cc1NC1CNC1)N1C(=NNC(=O)[C@H]1C)CO2 (single isomer, unassigned) [Example 54-1, trifluoroacetic acid] | > 6.60 | 5.00 to 6.00 | 6.00 to 6.60
C[C@H]1C(=O)NN=C2COc3cc4ccn([C@@]5(C)CCNC5)c4cc3N21 [Example 162, (S)-1-Methyl-10-((S)-3-methyl-pyrrolidin-3-yl)-3,5-dihydro-10H-6-oxa-3,4,10,11b-tetraaza-cyclopenta[b]phenanthren-2-one] | > 6.60 | 6.00 to 6.60 | > 6.60
C[C@@H]1C(=O)NN=C2COc3cc(-c4ccccc4F)c(N4[C@@H]5CC[C@H]4CNC5)cc3N21 [Example 228] | > 6.60 | 6.00 to 6.60 | 6.00 to 6.60
CCc1cn(C2(C)CNC2)c2cc3c(cc12)OCC1=NNC(=O)[C@@H](C)N13 [Example 156, (R)-8-Ethyl-1-methyl-10-(3-methyl-azetidin-3-yl)-3,5-dihydro-10H-6-oxa-3,4,10,11b-tetraaza-cyclopenta[b]phenanthren-2-one hydrochloride] | > 6.60 | 5.00 to 6.00 | 6.00 to 6.60
CC1C(=O)NN=C2COc3cc(-c4ccccc4)c(N(C)C4(C)CN(Cc5ccccc5)C4)cc3N21 (stereo not drawn) [Example 92] | > 6.60 | 6.00 to 6.60 | > 6.60
CCN1CC(C)(N(C)c2cc3c(cc2-c2ccccc2)OCC2=NNC(=O)C(C)N23)C1 (stereo not drawn) [Example 93] | > 6.60 | 5.00 to 6.00 | 5.00 to 6.00
C[C@@H]1C(=O)NN=C2COc3cc(-c4c(F)cccc4N4CCNCC4)ccc3N21 [Example 130, (R)-7-(2-Fluoro-6-piperazin-1-yl-phenyl)-4-methyl-2,10-dihydro-9-oxa-1,2,4a-triaza-phenanthren-3-one trifluoroacetic acid] | 6.00 to 6.60 | 5.00 to 6.00 | 6.00 to 6.60
CC[C@H]1CNCCN1c1cc2c(cc1-c1ccccc1F)OCC1=NNC(=O)[C@@H](C)N12 [Example 227] | > 6.60 | 5.00 to 6.00 | 6.00 to 6.60
C[C@@H]1C(=O)NN=C2COc3cc4ccn([C@H]5CCNC5)c4cc3N21 [Example 151-1, (R)-1-Methyl-10-(S)-pyrrolidin-3-yl-3,5-dihydro-10H-6-oxa-3,4,10,11b-tetraaza-cyclopenta[b]phenanthren-2-one hydrochloric acid] | > 6.60 | 6.00 to 6.60 | > 6.60
CC1C(=O)NN=C2CSc3ccc(NC4CNC4)cc3N21 (stereo not drawn) [Example 97, 6-(Azetidin-3-ylamino)-4-methyl-2,10-dihydro-9-thia-1,2,4a-triaza-phenanthren-3-one hydrochloric acid salt] | > 6.60 | 5.00 to 6.00 | > 6.60
C[C@@H]1C(=O)NN=C2COc3cc(-c4ccccc4F)c([C@@H](C)C4(C)CN(CCO)C4)cc3N21 [Example 141] | > 6.60 | 6.00 to 6.60 | > 6.60
C[C@@H]1C(=O)NN=C2COc3ccc([C@@H]4CCN[C@H](Cc5ccccc5)C4)cc3N21 (single isomer, unassigned) [Example 109-2, trifluoroacetic acid] | > 6.60 | 5.00 to 6.00 | > 6.60
CC(C)c1cc2c(cc1C1CCNCC1)N1C(=NNC(=O)C1C)CO2 (stereo not drawn) [Example 76, 7-Isopropyl-4-methyl-6-piperidin-4-yl-2,10-dihydro-9-oxa-1,2,4a-triaza-phenanthren-3-one trifluoroacetic acid] | 6.00 to 6.60 | 5.00 to 6.00 | 6.00 to 6.60
Cc1cc2c(cc1NC1CNC1)N1C(=NNC(=O)[C@@H]1C)CO2 (single isomer, unassigned) [Example 54-2, trifluoroacetic acid] | 6.00 to 6.60 | 5.00 to 6.00 | 5.00 to 6.00
CC1C(=O)NN=C2COc3cc(C4CCCC4)c(NC4CNC4)cc3N21 (stereo not drawn) [Example 60] | > 6.60 | 5.00 to 6.00 | 6.00 to 6.60
CC1C(=O)NN=C2COc3cc(-c4ccc5scnc5c4)c(NC4CNC4)cc3N21 (racemic) [Example 37] | > 6.60 | 5.00 to 6.00 | > 6.60
CC(C)c1cc2c(cc1NC1CNC1)N1C(=NNC(=O)[C@@H]1C)CO2 (single isomer, unassigned) [Example 57-2, trifluoroacetic acid] | 6.00 to 6.60 | 5.00 to 6.00 | 5.00 to 6.00
CC1C(=O)NN=C2COc3cc(F)c(C4CCNCC4)cc3N21 (stereo not drawn) [Example 72] | 6.00 to 6.60 | 5.00 to 6.00 | 5.00 to 6.00

Compound | pIC50 (PKCθ) | pIC50 (PKCα) | pEC50 [1]
CC1C(=O)NN=C2COc3cc(-c4cccc(OC(F)(F)F)c4)c(NC4CNC4)cc3N21 (racemic) [Example 16] | 6.00 to 6.60 | 5.00 to 6.00 | > 6.60
CC1C(=O)NN=C2COc3cc(-c4ccc(C(F)(F)F)cc4)c(NC4CNC4)cc3N21 (racemic) [Example 14] | 6.00 to 6.60 | 5.00 to 6.00 | > 6.60
CC1C(=O)NN=C2COc3cc(-c4ccc(Cl)c(Cl)c4)c(NC4CNC4)cc3N21 (racemic) [Example 25] | > 6.60 | 5.00 to 6.00 | > 6.60
CC1C(=O)NN=C2COc3cc(-c4cccc(Cl)c4)c(NC4CNC4)cc3N21 (racemic) [Example 17] | > 6.60 | 5.00 to 6.00 | > 6.60
C[C@@H]1C(=O)NN=C2COc3cc4c(cc3N21)N([C@H]1CCNC1)CC4 [Example 154, (R)-1-Methyl-10-(S)-pyrrolidin-3-yl-3,5,9,10-tetrahydro-8H-6-oxa-3,4,10,11b-tetraaza-cyclopenta[b]phenanthren-2-one hydrochloric acid] | > 6.60 | 5.00 to 6.00 | 6.00 to 6.60
C[C@@H]1C(=O)NN=C2COc3cc4ccn([C@@]5(C)CCNC5)c4cc3N21 [Example 163, (R)-1-Methyl-10-((S)-3-methyl-pyrrolidin-3-yl)-3,5-dihydro-10H-6-oxa-3,4,10,11b-tetraaza-cyclopenta[b]phenanthren-2-one] | > 6.60 | > 6.60 | > 6.60
C[C@@H]1C(=O)NN=C2COc3cc(-c4ccccc4F)c([C@@H](C)C4(C)CN(CC5COC5)C4)cc3N21 [Example 144] | > 6.60 | 5.00 to 6.00 | 6.00 to 6.60
CC(C)c1cc2c(cc1OC1CNC1)N1C(=NNC(=O)[C@H]1C)CO2 (single isomer, unassigned) [Example 96, trifluoroacetic acid] | > 6.60 | 5.00 to 6.00 | > 6.60
CC1C(=O)NN=C2COc3cc(-c4ccccc4F)c(NC4CNC4)cc3N21 (racemic) [Example 42] | > 6.60 | 5.00 to 6.00 | > 6.60
C[C@@H]1C(=O)NN=C2COc3cc(-c4cccc(F)c4)c(NC4CNC4)cc3N21 [Example 6] | > 6.60 | 5.00 to 6.00 | > 6.60
Cc1cc2c(cc1NC1CNC1)N1C(=NNC(=O)C1C)CO2 (stereo not drawn) [Example 122, 9-(Azetidin-3-ylamino)-1,8-dimethyl-3,5-dihydrobenzo[5,6][1,4]oxazino[3,4-c][1,2,4]triazin-2(1H)-one ditrifluoroacetic acid] | > 6.60 | 5.00 to 6.00 | 5.00 to 6.00
CC(C)N1CC(C)(Nc2cc3c(cc2C2CCOCC2)OCC2=NNC(=O)C(C)N23)C1 (stereo not drawn) [Example 126, 9-((1-Isopropyl-3-methylazetidin-3-yl)amino)-1-methyl-8-(tetrahydro-2H-pyran-4-yl)-3,5-dihydrobenzo[5,6][1,4]oxazino[3,4-c][1,2,4]triazin-2(1H)-one trifluoroacetic acid] | > 6.60 | 5.00 to 6.00 | 6.00 to 6.60
CC1C(=O)NN=C2COc3cc(C(F)(F)F)c(OC4(C)CNC4)cc3N21 (stereo not drawn) [Example 107, 4-Methyl-6-(3-methyl-azetidin-3-yloxy)-7-trifluoromethyl-2,10-dihydro-9-oxa-1,2,4a-triaza-phenanthren-3-one trifluoroacetic acid] | > 6.60 | > 6.60 | > 6.60
CC1C(=O)NN=C2COc3cc(-c4ccc(Cl)cc4)c(NC4CNC4)cc3N21 (racemic) [Example 45] | > 6.60 | 5.00 to 6.00 | > 6.60
Cc1ccc(F)cc1-c1cc2c(cc1NC1CNC1)N1C(=NNC(=O)C1C)CO2 (racemic) [Example 15] | > 6.60 | 5.00 to 6.00 | > 6.60
CC1C(=O)NN=C2COc3cc4ccn(C5CCCNC5)c4cc3N21 (stereo not drawn) [Example 152] | > 6.60 | 5.00 to 6.00 | 6.00 to 6.60
Cc1ccc(-c2cc3c(cc2N(C)C2(C)CN(C)C2)N2C(=NNC(=O)C2C)CO3)cc1 (stereo not drawn) [Example 167] | > 6.60 | 6.00 to 6.60 | > 6.60
CC1C(=O)NN=C2COc3cc(F)c(NC4(C)CNC4)cc3N21 (stereo not drawn) [Example 84, 8-Fluoro-1-methyl-9-((3-methylazetidin-3-yl)amino)-3,5-dihydrobenzo[5,6][1,4]oxazino[3,4-c][1,2,4]triazin-2(1H)-one trifluoroacetic acid] | > 6.60 | 5.00 to 6.00 | > 6.60
COCc1ccccc1-c1cc2c(cc1N(C)C1(C)CN(C)C1)N1C(=NNC(=O)[C@H]1C)CO2 [Example 181] | > 6.60 | 5.00 to 6.00 | 6.00 to 6.60
